Data published in patent publication US7928103B2, “Compounds which modulate the CB2 receptor” (Boehringer Ingelheim International GmbH, priority 2006, dated 2011).

Key:
human CB2R [1] = biological target: T1, human CB2R (Homo sapiens, UniProt P34972); experiment: CB2R mediated modulation of cAMP synthesis; type: cell-based; parameters: host or cells: CHO cells; details: agonists decrease forskolin induced production of cAMP; CHO cells expressing human CB2R
Procedure: B. CB2R Mediated Modulation of cAMP Synthesis:
Compounds of the invention were evaluated for their CB2 agonist or inverse agonistic activity in accordance with the following experimental method.
CHO cells expressing human CB2R (Euroscreen) were plated at a density of 5000 cells per well in 384 well plates and incubated overnight at 37° C. After removing the media, the cells were treated with test compounds diluted in stimulation buffer containing 1 mM IBMX, 0.25% BSA and 10 uM Forskolin. The assay was incubated for 30 minutes at 37° C. Cells were lysed and the cAMP concentration was measured using DiscoverX-XS cAMP kit, following the manufacturer's protocol. In this setting, agonists will decrease forskolin induced production of cAMP while inverse agonists will further increase forskolin induced production of cAMP. EC50 of agonists were calculated as follows. The maximal amount of cAMP produced by forskolin compared to the level of cAMP inhibited by 1 uM CP55940 is defined as 100%. The EC50 value of each test compound was determined as the concentration at which 50% of the forskolin-stimulated cAMP synthesis was inhibited. Data was analyzed using a four-parameter logistic model. (Model 205 of XLfit 4.0).

human CB2R [2] = biological target: T1, human CB2R; experiment: Human CB2 receptor binding (3H-CP55940 competition, SPA); parameters: purchased Perkin Elmer Life and Analytical Sciences; host or cells: HEK293 EBNA cells, stably transfected; details: through the use of the above described assays (CB1/CB2 binding, CB2R and CB1R cAMP); assay not specified further
Procedure: A. Human CB1 and CB2 Receptor Binding:
CB2 membranes were purchased and made from HEK293 EBNA cells stably transfected with human CB2 receptor cDNA (Perkin Elmer Life and Analytical Sciences). CB1 membranes were isolated from HEK cells stably co-transfected with human CB1 receptor and Gα16 cDNA's. The membrane preparation was bound to scintillation beads (Ysi-Poly-L-lysine SPA beads, GE Healthcare) for 4 hours at room temperature in assay buffer containing 50 mM Tris, pH 7.5, 2.5 mM EDTA, 5 mM MgCl2, 0.8% fatty acid free Bovine Serum Albumin. Unbound membrane was removed by washing in assay buffer. Membrane-bead mixture was added to 96-well assay plates in the amounts of 15 ug membrane per well (CB2) or 2.5 ug per well (CB1) and 1 mg SPA bead per well. Compounds were added to the membrane-bead mixture in dose-response concentrations ranging from 1×10^−5 M to 1×10^−10 M with 0.25% DMSO, final. The competition reaction was initiated with the addition of ^3H-CP55940 (Perkin Elmer Life and Analytical Sciences) at a final concentration of 1.5 nM (CB2) or 2.5 nM (CB1). The reaction was incubated at room temperature for 18 hours and read on TopCount NXT plate reader. Total and non-specific binding was determined in the absence and presence of 1.25 uM Win 55212 (Sigma). IC50 values for each compound were calculated as the concentration of compound that inhibits the specific binding of the radioactively labeled ligand to the receptor by 50% using the XLFit 4.1 four parameter logistic model. IC50 values were converted to inhibition constant (Ki) values using Cheng-Prusoff equation.

T1 sequence (P34972 whole entry): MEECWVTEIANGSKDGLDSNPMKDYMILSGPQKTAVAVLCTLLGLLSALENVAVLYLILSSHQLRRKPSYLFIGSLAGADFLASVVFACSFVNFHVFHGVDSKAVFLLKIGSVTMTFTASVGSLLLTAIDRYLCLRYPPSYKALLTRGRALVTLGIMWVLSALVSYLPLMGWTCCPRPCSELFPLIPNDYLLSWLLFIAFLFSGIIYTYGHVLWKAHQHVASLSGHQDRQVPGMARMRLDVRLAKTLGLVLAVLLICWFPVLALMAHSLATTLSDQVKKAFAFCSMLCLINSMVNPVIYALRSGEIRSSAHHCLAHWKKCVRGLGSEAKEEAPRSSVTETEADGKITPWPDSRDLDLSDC

Row | found to exhibit agonistic activity (human CB2R [1]) | found to exhibit activity (human CB2R [2]) | Structure (SMILES)
1 | exhibit agonistic activity | exhibit activity | CC(C)(C)c1cc(Nc2ccc(CN3CCO[C@@H](c4ccccc4)C3)cn2)no1 [Example 1, (5-tert-Butyl-isoxazol-3-yl)-[5-((S)-2-phenyl-morpholin-4-ylmethyl)-pyridin-2-yl]-amine]
2 | exhibit agonistic activity | exhibit activity | COc1ccc(Nc2ccc(CN3CCO[C@@H](c4ccccc4)C3)cn2)cc1 [Example 2, (4-Methoxy-phenyl)-[5-((S)-2-phenyl-morpholin-4-ylmethyl)-pyridin-2-yl]-amine]
3 | exhibit agonistic activity | exhibit activity | FC(F)(F)Oc1ccc(Nc2ccc(CN3CCO[C@@H](c4ccccc4)C3)cn2)cc1 [Example 4, [5-((S)-2-Phenyl-morpholin-4-ylmethyl)-pyridin-2-yl]-(4-trifluoromethoxy-phenyl)-amine]
4 | exhibit agonistic activity | exhibit activity | CCc1ccc(Nc2ccc(CN3CCO[C@@H](c4ccccc4)C3)cn2)cc1 [Example 5, (4-Ethyl-phenyl)-[5-((S)-2-phenyl-morpholin-4-ylmethyl)-pyridin-2-yl]-amine]
5 | exhibit agonistic activity | exhibit activity | c1ccc([C@H]2CN(Cc3ccc(Nc4cccnc4)nc3)CCO2)cc1 [Example 9, [5-((S)-2-Phenyl-morpholin-4-ylmethyl)-pyridin-2-yl]-pyridin-3-yl-amine]
6 | exhibit agonistic activity | exhibit activity | c1ccc([C@H]2CN(Cc3ccc(Nc4ccncc4)nc3)CCO2)cc1 [Example 10, [5-((S)-2-Phenyl-morpholin-4-ylmethyl)-pyridin-2-yl]-pyridin-4-yl-amine]
7 | exhibit agonistic activity | exhibit activity | c1ccc([C@H]2CN(Cc3ccc(Nc4cnc5ccccc5c4)nc3)CCO2)cc1 [Example 11, [5-((S)-2-Phenyl-morpholin-4-ylmethyl)-pyridin-2-yl]-quinolin-3-yl-amine]
8 | exhibit agonistic activity | exhibit activity | Fc1ccccc1Nc1ccc(CN2CCO[C@@H](c3ccccc3)C2)cn1 [Example 16, (2-Fluoro-phenyl)-[5-((S)-2-phenyl-morpholin-4-ylmethyl)-pyridin-2-yl]-amine]
9 | exhibit agonistic activity | exhibit activity | Clc1ccccc1Nc1ccc(CN2CCO[C@@H](c3ccccc3)C2)cn1 [Example 17, (2-Chloro-phenyl)-[5-((S)-2-phenyl-morpholin-4-ylmethyl)-pyridin-2-yl]-amine]
10 | exhibit agonistic activity | exhibit activity | Clc1cccc(Nc2ccc(CN3CCO[C@@H](c4ccccc4)C3)cn2)c1Cl [Example 18, (2,3-Dichloro-phenyl)-[5-((S)-2-phenyl-morpholin-4-ylmethyl)-pyridin-2-yl]-amine]
11 | exhibit agonistic activity | exhibit activity | CCOc1ccccc1Nc1ccc(CN2CCO[C@@H](c3ccccc3)C2)cn1 [Example 22, (2-Ethoxy-phenyl)-[5-((S)-2-phenyl-morpholin-4-ylmethyl)-pyridin-2-yl]-amine]
12 | exhibit agonistic activity | exhibit activity | Fc1cccc(Nc2ccc(CN3CCO[C@@H](c4ccccc4)C3)cn2)c1 [Example 25, (3-Fluoro-phenyl)-[5-((S)-2-phenyl-morpholin-4-ylmethyl)-pyridin-2-yl]-amine]

The remaining lines, values behind:

Row | Structure (SMILES) | found to exhibit agonistic activity (human CB2R [1]) | found to exhibit activity (human CB2R [2])
13 | CCOc1ccc(Nc2ccc(CN3CCO[C@@H](c4ccccc4)C3)cn2)cc1 [Example 3, (4-Ethoxy-phenyl)-[5-((S)-2-phenyl-morpholin-4-ylmethyl)-pyridin-2-yl]-amine] | exhibit agonistic activity | exhibit activity
14 | c1ccc([C@H]2CN(Cc3ccc(Nc4cccc5ccccc45)nc3)CCO2)cc1 [Example 6, Naphthalen-1-yl-[5-((S)-2-phenyl-morpholin-4-ylmethyl)-pyridin-2-yl]-amine] | exhibit agonistic activity | exhibit activity
15 | c1ccc([C@H]2CN(Cc3ccc(Nc4ccc5ccccc5c4)nc3)CCO2)cc1 [Example 7, Naphthalen-2-yl-[5-((S)-2-phenyl-morpholin-4-ylmethyl)-pyridin-2-yl]-amine] | exhibit agonistic activity | exhibit activity
16 | c1ccc([C@H]2CN(Cc3ccc(Nc4ccncn4)nc3)CCO2)cc1 [Example 8, [5-((S)-2-Phenyl-morpholin-4-ylmethyl)-pyridin-2-yl]-pyrimidin-4-yl-amine] | exhibit agonistic activity | exhibit activity
17 | c1ccc([C@H]2CN(Cc3ccc(Nc4cccc5ncccc45)nc3)CCO2)cc1 [Example 12, [5-((S)-2-Phenyl-morpholin-4-ylmethyl)-pyridin-2-yl]-quinolin-5-yl-amine] | exhibit agonistic activity | exhibit activity
18 | c1ccc([C@H]2CN(Cc3ccc(Nc4cccc5cccnc45)nc3)CCO2)cc1 [Example 13, [5-((S)-2-Phenyl-morpholin-4-ylmethyl)-pyridin-2-yl]-quinolin-8-yl-amine] | exhibit agonistic activity | exhibit activity
19 | c1ccc([C@H]2CN(Cc3ccc(Nc4cccc5cnccc45)nc3)CCO2)cc1 [Example 14, Isoquinolin-5-yl-[5-((S)-2-phenyl-morpholin-4-ylmethyl)-pyridin-2-yl]-amine] | exhibit agonistic activity | exhibit activity
20 | c1ccc(Nc2ccc(CN3CCO[C@@H](c4ccccc4)C3)cn2)cc1 [Example 15, Phenyl-[5-((S)-2-phenyl-morpholin-4-ylmethyl)-pyridin-2-yl]-amine] | exhibit agonistic activity | exhibit activity
21 | Clc1ccc(Nc2ccc(CN3CCO[C@@H](c4ccccc4)C3)cn2)c(Cl)c1 [Example 19, (2,4-Dichloro-phenyl)-[5-((S)-2-phenyl-morpholin-4-ylmethyl)-pyridin-2-yl]-amine] | exhibit agonistic activity | exhibit activity
22 | Clc1ccc(Cl)c(Nc2ccc(CN3CCO[C@@H](c4ccccc4)C3)cn2)c1 [Example 20, (2,5-Dichloro-phenyl)-[5-((S)-2-phenyl-morpholin-4-ylmethyl)-pyridin-2-yl]-amine] | exhibit agonistic activity | exhibit activity
23 | COc1ccccc1Nc1ccc(CN2CCO[C@@H](c3ccccc3)C2)cn1 [Example 21, (2-Methoxy-phenyl)-[5-((S)-2-phenyl-morpholin-4-ylmethyl)-pyridin-2-yl]-amine] | exhibit agonistic activity | exhibit activity
24 | CC(C)c1ccccc1Nc1ccc(CN2CCO[C@@H](c3ccccc3)C2)cn1 [Example 23, (2-Isopropyl-phenyl)-[5-((S)-2-phenyl-morpholin-4-ylmethyl)-pyridin-2-yl]-amine] | exhibit agonistic activity | exhibit activity
25 | Cc1ccccc1Nc1ccc(CN2CCO[C@@H](c3ccccc3)C2)cn1 [Example 24, [5-((S)-2-Phenyl-morpholin-4-ylmethyl)-pyridin-2-yl]-o-tolyl-amine] | exhibit agonistic activity | exhibit activity
